Test results as given in US11433036B2, “Oxprenolol compositions for treating cancer” (priority 2013, dated 2022).
“Also recorded” adds a separate entry of the source. Read-outs that look alike come from different tables or passages of the source.

Experiments:
Yoshida Hepatoma Model [1] = settings: Day 11; for food intake: FIG. 17; for locomotor activity: FIG. 18
Excerpt: (§1) Ascites hepatoma Yoshida AH-130 cells (10^3 cells) were inoculated into about 200 gram male Wistar rats by i.p. injection. Alternatively animals received saline injection only (sham). The day after inoculation animals were randomized into various groups and then received twice daily treatment with either placebo or various test compositions by oral gavage over a period of up to 17 days. The primary endpoints of the study included assessment of body weight, body composition (with and without tumor), and survival. Body composition was monitored by NMR. Echocardiography was used in instances to monitor condition of the heart. Organ weight was assessed at the end of the study (or after death) as a secondary endpoint. In addition, locomotor activity and food intake were also assessed. FIG. 1 provides a diagram showing the design study. R- and S-oxprenolol were manufactured to order by Peakdale Molecular, Peakdale Science Park, Sheffield Road. Chapel-en-le-Frith, High Peak SK23 0PG, UK
To study the effect of the test compounds on quality of life, parameters of quality of life such as food intake and locomotor activity were assessed at Day 11.

Yoshida Hepatoma Model [2] = test: Survival in Yoshida hepatoma model; assay type: in vivo, male Wistar rats; settings: for survival: animal inoculated with hepatocellular carcinoma cells, summary statement
Excerpt: as §1
To study the effect of S-oxprenolol and R-oxprenolol on survival, survival was monitored over time.

Yoshida Hepatoma Model [3] = settings: for change of body weight: 5, 12.5, 25 or 50 mg/kg/day, FIG. 7; for change in body weight: S-oxprenolol 20 mg/kg/day vs racemic mixture 40 mg/kg/day, FIG. 8
Excerpt: as §1
To study the effect of the test compounds on body weight, body weight was monitored over time.
To study the effect of the test compounds as mixtures of enantiomers on body weight, body weight was monitored over time.

Yoshida Hepatoma Model [4] = settings: 5, 12.5, 25 or 50 mg/kg/day; end of study; FIGS. 13A-13D
Excerpt: as §1
To study the effect of the test compounds on skeletal muscle atrophy and heart weight, the skeletal muscle mass and heart weight were determined at the end of the study.

Yoshida Hepatoma Model [5] = settings: 5, 12.5, 25 or 50 mg/kg/day vs placebo; end of study; FIGS. 19A and 19B
Excerpt: as §1
To study the effect of the test compounds on tumor growth, tumor growth was assessed at the end of the study.

Yoshida Hepatoma Model [6] = settings: for change in lean body mass/days alive: FIG. 11B
Excerpt: as §1
To study the effect of the test compounds on lean body mass, lean mass was determined at the end of the study.
To study the effect of the test compounds as mixtures of enantiomers on lean body mass, lean mass was determined at the end of the study.

Yoshida Hepatoma Model [7] = settings: for change in fat mass: FIG. 14
Excerpt: as §1
To study the effect of the test compounds on fat mass, the fat mass were determined at the end of the study.
To study the effect of the test compounds as mixtures of enantiomers on fat mass, the fat mass were determined at the end of the study.

Kelly (neuroblastoma) = settings: Kelly cells; BrdU incorporation and XTT assay; FIG. 20
Protocol: (§2) The effect of the test compounds on tumor growth was also evaluated in an in vitro experiment with various tumor cells, namely, Kelly (neuroblastoma), Hela-93 (cervix carcinoma), and B16V (melanoma). Cell growth was assessed by BrdU incorporation (left of FIG. 20) and XTT assay (right of FIG. 20). Doxorubicin was used as a positive control.

[8] = test system: Hela-93 (cervix carcinoma); settings: Hela-93 cells; BrdU incorporation and XTT assay; FIG. 20
Protocol: as §2

B16V (melanoma) = settings: B16V cells; BrdU incorporation and XTT assay; FIG. 20
Protocol: as §2

[9] = 5 mg/kg/day or 25 mg/kg/day vs placebo
[10] = 25 mg/kg/day S-oxprenolol vs same amount of R-oxprenolol
[11] = 25 mg/kg/day or 50 mg/kg/day, oral gavage twice daily, up to 17 days, FIG. 2
[12] = 5, 12.5, 25 or 50 mg/kg/day, FIG. 10
[13] = 5, 12.5, 25 or 50 mg/kg/day, FIG. 15A
[14] = 5, 12.5, 25 or 50 mg/kg/day, FIG. 15B
[15] = S-oxprenolol 20 mg/kg/day vs racemic mixture 40 mg/kg/day (same amount of S-oxprenolol), FIG. 3
[16] = S-oxprenolol vs placebo or S-pindolol 3 mg/kg/day, FIG. 4
[17] = S-oxprenolol 20 mg/kg/day vs racemic mixture 40 mg/kg/day, FIG. 11A
[18] = S-oxprenolol 20 mg/kg/day vs racemic mixture 40 mg/kg/day
[19] = S-oxprenolol 20 mg/kg/day vs racemic mixture 40 mg/kg/day, FIG. 16A
[20] = S-oxprenolol 20 mg/kg/day vs racemic mixture 40 mg/kg/day, FIG. 16B

Structure (SMILES) | food intake (Yoshida Hepatoma Model [1]; [9]) | locomotor activity (Yoshida Hepatoma Model [1]; [9]) | food intake (Yoshida Hepatoma Model [1]; [10]) | locomotor activity (Yoshida Hepatoma Model [1]; [10]) | percent survival (Yoshida Hepatoma Model [2]; [11]) | survival (Yoshida Hepatoma Model [2]) | change of body weight (Yoshida Hepatoma Model [3]) | mass of skeletal muscle (gastrocnemius, tibialis anterior, soleus, EDL) (Yoshida Hepatoma Model [4]) | tumor growth (tumor volume, total number of cells in a tumor) (Yoshida Hepatoma Model [5]) | change in lean body mass (Yoshida Hepatoma Model [6]; [12]) | change in fat mass (Yoshida Hepatoma Model [7]; 5, 12.5, 25 or 50 mg/kg/day) | weight of white adipose tissue (WAT) (Yoshida Hepatoma Model [7]; [13]) | weight of brown adipose tissue (BAT) (Yoshida Hepatoma Model [7]; [14]) | tumor cell proliferation (Kelly (neuroblastoma)) | tumor cell proliferation [8] | tumor cell proliferation (B16V (melanoma)) | percent survival (Yoshida Hepatoma Model [2]; [15]) | percent survival (Yoshida Hepatoma Model [2]; [16]) | change in body weight (Yoshida Hepatoma Model [3]) | change in lean body mass (Yoshida Hepatoma Model [6]; [17]) | further results
C=CCOc1ccccc1OC[C@H](O)CNC(C)C [R-oxprenolol, (R)-(+)-oxprenolol, reference compound] | higher food intake than those in the placebo group | higher locomotive activity than those in the placebo group | Rats receiving 25 mg/kg/day S-oxprenolol had higher food intake than those receiving the same amount of R-oxprenolol | Rats receiving 25 mg/kg/day S-oxprenolol had higher locomotive activity than those receiving the same amount of R-oxprenolol | did not show statistically significant improvement on survival over those in the placebo group | S-oxprenolol, but not R-oxprenolol, significantly improved survival | rats receiving S-oxprenolol had less body weight loss than those in the placebo group and those administered with R-oxprenolol | does not have this protective effect | did not have any significant effects on tumor growth compared to those in the placebo group | rats receiving S-oxprenolol at doses of 12.5 mg/kg/day or higher had less change in lean body mass than those receiving R-oxprenolol | rats receiving S-oxprenolol at 12.5 mg/kg/day or higher had less fat mass loss than those in the placebo group or those receiving R-oxprenolol | S-oxprenolol had better effects in reducing fat wasting than R-oxprenolol | both enantiomers of oxprenolol protect BAT mass | neither S-oxprenolol nor R-oxprenolol showed any inhibitor effects on tumor cell proliferation | neither S-oxprenolol nor R-oxprenolol showed any inhibitor effects on tumor cell proliferation | neither S-oxprenolol nor R-oxprenolol showed any inhibitor effects on tumor cell proliferation |  |  |  |  | percent survival (Yoshida Hepatoma Model [2]; R-oxprenolol 5, 12.5, 25 or 50 mg/kg/day, FIG. 6): no statistically significant survival benefit over placebo was observed
C=CCOc1ccccc1OC[C@@H](O)CNC(C)C [S-oxprenolol, (S)-(−)-oxprenolol] | higher food intake than those in the placebo group | higher locomotive activity than those in the placebo group | higher food intake than those receiving the same amount of R-oxprenolol | higher locomotive activity than those receiving the same amount of R-oxprenolol | longer survival than those in the placeo group or those receiving R-oxprenolol | significantly improved survival in animals having cancer | less body weight loss than those in the placebo group and those administered with R-oxprenolol | reduces wasting of individual hind limb muscles independent of their composition of slow and fast twitch muscle fibers | did not have any significant effects on tumor growth compared to those in the placebo group | rats receiving S-oxprenolol at doses of 12.5 mg/kg/day or higher had less change in lean body mass than those receiving R-oxprenolol | rats receiving S-oxprenolol at 12.5 mg/kg/day or higher had less fat mass loss than those in the placebo group or those receiving R-oxprenolol | better effects in reducing fat wasting than R-oxprenolol | both enantiomers of oxprenolol protect BAT mass | neither S-oxprenolol nor R-oxprenolol showed any inhibitor effects on tumor cell proliferation | neither S-oxprenolol nor R-oxprenolol showed any inhibitor effects on tumor cell proliferation | neither S-oxprenolol nor R-oxprenolol showed any inhibitor effects on tumor cell proliferation | longer survival than those receiving the racemic mixture; also recorded: had an improved effect on survival than the racemic mixture | significantly superior to either placebo or S-pindolol at its preferred dose | less body weight loss than those receiving the racemic mixture | less change in lean body weight than those receiving the racemic mixture | percent survival, comparison of dosages (Yoshida Hepatoma Model [2]; S-oxprenolol 5, 12.5, 25, 50, 70 or 100 mg/kg/day, FIGS. 4 and 5): 50 mg/kg/day S-oxprenolol had the best effect on survival among all dosages tested; change in body weight, comparison of dosages (Yoshida Hepatoma Model [3]; S-oxprenolol 12.5, 25, 50, 70 or 100 mg/kg/day, FIG. 9): rats receiving 50 mg/kg/day or 100 mg/kg/day of the S-oxprenolol had the least body weight loss; change in lean body mass/days alive (Yoshida Hepatoma Model [6]; [18]): less change in lean body mass than those receiving the racemic mixture; change in lean body mass, comparison of dosages (Yoshida Hepatoma Model [6]; S-oxprenolol 12.5, 25, 50, 70 or 100 mg/kg/day, FIG. 12A): rats receiving 100 mg/kg/day of S-oxprenolol had the least change in lean body mass compared to rats receiving other doses; change in lean body mass/days alive, comparison of dosages (Yoshida Hepatoma Model [6]; S-oxprenolol 12.5, 25, 50, 70 or 100 mg/kg/day, FIG. 12B): rats receiving 100 mg/kg/day of S-oxprenolol had the least change in lean body mass/days alive compared to rats receiving other doses; weight of white adipose tissue (WAT) (Yoshida Hepatoma Model [7]; [19]): significantly better effect in preserving the white adipose tissue than those receiving the racemic mixture; weight of brown adipose tissue (BAT) (Yoshida Hepatoma Model [7]; [20]): better effect in preserving the brown adipose tissue than those receiving the racemic mixture
C=CCOc1ccccc1OCC(O)CNC(C)C (racemic) [racemic mixture of oxprenolol, 1-[2-(allyloxy)phenoxy]-3-(isopropylamino)propan-2-ol, reference compound] |  |  |  |  |  |  |  |  |  |  |  |  |  |  |  |  | rats receiving S-oxprenolol had longer survival than those receiving the racemic mixture |  | rats receiving S-oxprenolol had less body weight loss than those receiving the racemic mixture | rats receiving S-oxprenolol had less change in lean body weight than those receiving the racemic mixture | change in lean body mass/days alive (Yoshida Hepatoma Model [6]; [18]): rats receiving S-oxprenolol had less change in lean body mass than those receiving the racemic mixture; weight of white adipose tissue (WAT) (Yoshida Hepatoma Model [7]; [19]): rats receiving S-oxprenolol had significantly better effect in preserving the white adipose tissue than those receiving the racemic mixture; weight of brown adipose tissue (BAT) (Yoshida Hepatoma Model [7]; [20]): rats receiving S-oxprenolol had better effect in preserving the brown adipose tissue than those receiving the racemic mixture
CC(C)NC[C@H](O)COc1cccc2[nH]ccc12 [S-pindolol, reference compound] |  |  |  |  |  |  |  |  |  |  |  |  |  |  |  |  |  | S-oxprenolol was significantly superior to either placebo or S-pindolol at its preferred dose |  |  | 
